We go through 5 compounds from patent US12527785B2, “Renin-angiotensin-aldosterone system (RAAS) inhibitors in the treatment of pancreatic ductal carcinoma” (OCHSNER CLINIC FOUNDATION, priority 2023, dated 2026).

One series concerns PANC-1 cells. The series is described as follows: WST1 cell proliferation assay, PANC-1 cells. The format is cell-based, human. As for the experimental part:
(§1) PDA cell line (PANC-1 or HS766T) or patient cancer cells (PaCa9) were trypsinized with 1% trypsin in Hank's Balanced Salt Solution (HBSS), counted, washed, and resuspended in serum free AIM media (ThermoFisher Scientific, Waltham, MA) or complete Dulbecco's Modified Eagle Medium (DMEM) supplemented with 10% fetal bovine serum, […], 100 U/ml of penicillin G, and […] of streptomycin. Cells at a concentration of 2-4×10^4 cells/well in 100 μl culture medium were seeded in triplicate in 96 well plates, then cultured in a humidified incubator at 37° C. and 5% CO2. On the next day, cell supernatant was discarded and compounds (e.g., drugs) of the present disclosure in 200 μl medium were added with the concentrations indicated in the following Examples. After 72 hours of culture, cell proliferation reagent WST1 (20 μl/well, Sigma Aldrich Inc, St. Louis, MO) were added and plates were read using an ELISA reader at 2 hours and 4 hours under the wavelength of 450 nm. The measured absorbance (OD value) was recorded and graphed and statistically analyzed using GraphPad Prism 8, t-test, or t-test with Bonferroni correction.
A general note: Tetrazolium dyes change colour on reduction, which living cells bring about.

Series [1] has as its system PDCA cells (PANC-1, HS766T, PaCa9). The series can be described thus: In vitro PDCA cell proliferation (WST1), summary statements over the cell lines tested. The format is cell-based. As for the experimental part:
as §1

The next series concerns HS766T cells. The series can be described thus: WST1 cell proliferation assay, HS766T cells. It is filed as cell-based. The protocol: as §1
The conditions of series [2]: 0.1 mg/kg by subcutaneous injection; cited from earlier work.
Series [3] relates to PANC-1 tumor orthotopic xenograft. The series is described as follows: PANC-1 tumor orthotopic xenograft mouse model (BLI tumor burden, tumor weight). It is filed as in vivo. To be noted: four weeks; for Tumor weight, % of control / Tumor weight, mean: Table 19; for Tumor weight, mean: control 0.425; for BLI data, mean: control 3.003. From the text:
Human PDCA cell line PANC-1 was transduced with pre-made lentiviral vectors encoding luciferase (firefly)/red fluorescent protein (RFP) to enable monitoring of the growth of primary tumor and metastasis. […] For in vivo experiments, Nonobese diabetic/severe combined immunodeficiencyNOD-SCID mice (Jackson Labs, Bar Harbor, ME, or inhouse breeding) were first brought under anesthesia with isoflurane (2.5% in 100% oxygen, 1 L/min) in an induction chamber and maintained under adequate anesthesia (isoflurane inhalation) while being laid on a warming pad throughout the surgical procedure. For tumor generation, 5×10^4 luciferase-tagged PANC-1 cells were co-inoculated with 3×10^5 lymph node stromal cell (LNSC) analog HK cells. The mice received a 0.75-1.2 cm long incision (on the left side of the body slightly medial to the splenic silhouette) to exteriorize the spleen and pancreas. While gently retracting the pancreas laterally, a 30 G needle was inserted along the length of the pancreas from the tail to the pancreatic head region. Then, 10 μl of cell suspension was injected as the needle was withdrawn to the mid-body of the pancreas. The needle was removed, and the area was inspected for leakage and bleeding. The pancreas and spleen were internalized with forceps and the abdominal muscle layer was closed with interrupted stitches (3-0 silk suture). The overlying skin was closed with a second set of interrupted stitches. Buprenorphine SR-LAB was injected subcutaneously immediately after the surgery for pain relief.
After the surgery, tumor growth and metastatic tumor burden were monitored and assessed weekly for luciferase activity by bioluminescence imaging (BLI) using Lago Imaging System (Spectral Instruments Imaging, Tucson, AZ). Mice were anesthetized using isoflurane for all imaging procedures. Mice were administered intraperitoneally with luciferin (10 mg/kg) and imaged in 10-20 minutes for maximum luciferase signal plateau. Images were analyzed using Aura Imaging software. Once the BLI levels of xenografted tumor reached 5×10^8 photons (around 7-9 weeks post PANC-1 cell injection), the mice were grouped based on their BLI level and compounds (e.g., drugs) of the present disclosure were given by gavage daily to each group for 4 weeks. […] Upon sacrifice after 4 weeks of treatment, primary tumors and mouse organs were harvested, weighed, imaged, and formalin-fixed for (hematoxylin and eosin) H&E and immunohistochemistry staining. Data was statistically analyzed using t-test, or t-test with Bonferroni correction.

The conditions of series [4]: mouse, in vivo; cited from earlier work.
Series [5] deals with PaCa-9 PDAC patient tumor cells. The series can be described thus: WST1 cell proliferation assay, PaCa-9 PDAC patient tumor cells. It is filed as cell-based, human. To be noted: for cell proliferation, WST1 absorbance (OD value, 450 nm), mean: 10% FCS-DMEM. As for the experimental part:
as §1, with “Louis, MO) were added and plates were read using an ELISA reader at 2 hours and 4 hours under the wavelength of 450 nm.” left out

Setting [6] is: Candesartan Cilexitil (60 mg/kg).

On to `Cc1cc(Cn2cnc3c2C[C@@H](C(=O)O)N(C(=O)C(c2ccccc2)c2ccccc2)C3)ccc1N(C)C` [PD123319], for which the “cell proliferation, WST1 absorbance (OD value, 450 nm), mean” value (“cell proliferation, WST1 absorbance” below) is on record as 2.724 with PANC-1 cells (10 μM, Table 8, 2 h, DMEM-10% FCS, control 3.922); 2.120 in the series with PANC-1 cells (10 μM, Table 10, 2 h, serum free media, control 3.443); 2.823 in the series with PANC-1 cells (10 μM, Table 12, 2 h, 10% FCS DMEM, N = 6, control 3.37); 1.048 in the series on PANC-1 cells (10 μM, Table 14, 2 h, serum free media, N = 6, control 1.208); 2.60 with PANC-1 cells (30 μM, Table 8, 2 h, DMEM-10% FCS, control 3.922); 1.970 in the series with PANC-1 cells (30 μM, Table 10, 2 h, serum free media, control 3.443). The “cell proliferation, WST1 absorbance” value in the series with PANC-1 cells (30 μM, Table 12, 2 h, 10% FCS DMEM, N = 6, control 3.37) is on record as 2.854; in the series with PANC-1 cells (30 μM, Table 14, 2 h, serum free media, N = 6, control 1.208), 0.7668; with PANC-1 cells (50 μM, Table 8, 2 h, DMEM-10% FCS, N = 1, control 3.922), 1.951; with PANC-1 cells (50 μM, Table 10, 2 h, serum free media, control 3.443), 2.146; with PANC-1 cells (50 μM, Table 12, 2 h, 10% FCS DMEM, N = 6, control 3.37) it was 2.873; in the series with PANC-1 cells (50 μM, Table 14, 2 h, serum free media, N = 6, control 1.208), 0.728. Further, the “cell proliferation, WST1 absorbance” value is on record as 1.336 in the series on HS766T cells (10 μM, Table 9, 2 h, DMEM-10% FCS, control 2.025); 1.24 with HS766T cells (10 μM, Table 11, 2 h, serum free media, control 2.0695); 2.895 in the series with HS766T cells (10 μM, Table 13, 2 h, 10% FCS DMEM, control 2.913); 1.708 in the series on HS766T cells (10 μM, Table 15, 2 h, serum free media, N = 6, control 1.906); 1.397 in the series on HS766T cells (30 μM, Table 11, 2 h, serum free media, control 2.0695); 2.555 in the series on HS766T cells (30 μM, Table 13, 2 h, 10% FCS DMEM, control 2.913). The “cell proliferation, WST1 absorbance” value in the series on HS766T cells (30 μM, Table 15, 2 h, serum free media, N = 6, control 1.906) came out at 1.56; in the series with HS766T cells (50 μM, Table 11, 2 h, serum free media, control 2.0695), 1.235; in the series on HS766T cells (50 μM, Table 13, 2 h, 10% FCS DMEM, control 2.913), 1.886; in the series on HS766T cells (50 μM, Table 15, 2 h, serum free media, N = 6, control 1.906), 1.154. The “Effective in inhibiting PDCA cell proliferation in vitro” value in series [1] (10 μM, 30 μM, and 50 μM, presence or absence of serum) is “effective”. In addition, the Activity in rats entry in series [2] is reported as “active”.
For the compound `CCOc1nc2cccc(C(=O)OC(C)OC(=O)OC3CCCCC3)c2n1Cc1ccc(-c2ccccc2-c2nnn[nH]2)cc1` (stereo not shown) [Candesartan Cilexitil], in series [3] (setting [6]), the “Tumor weight, % of control” value worked out at 38% and the “Tumor weight, mean” value turned out to be 0.163 g. For the same compound, the “Safety of oral administration to mice” value in series [4] is on record as “safely”.
For `CCOc1nc2cccc(C(=O)O)c2n1Cc1ccc(-c2ccccc2-c2nnn[nH]2)cc1` [Candesartan], the “Effective (statistically significant, p<0.05, decrease in cell proliferation by WST1 assay)” value (in series [5] (20 μM); with PANC-1 cells (20 μM); in the series with HS766T cells (20 μM)) was “effective” throughout. In addition, the “cell proliferation, WST1 absorbance” value in series [5] (Candesartan 10 μM, Table 3, 1 h, Medium/DMSO 3.571) is on record as 3.694; in series [5] (Candesartan 20 μM, Table 7A, 2×10^4 cells per well, control 3.535), 0.464; in the series on PANC-1 cells (Candesartan 20 μM, Table 5A, 10% FCS-DMEM, 2×10^4 cells per well, Medium/DMSO 3.348) it was 0.612; in the series on HS766T cells (Candesartan 10 μM, Table 2, 2 h, 10% FCS-DMEM, control 3.214) it was 2.856; in the series with HS766T cells (Candesartan 20 μM, Table 6A, 10% FCS-DMEM, 2×10^4 cells per well, control 3.339) it was 0.620. In addition, in series [3] (Candesartan (30 mg/kg)), the “BLI data, % of control” value came to 67%. Also, the “BLI data, mean” value in series [3] (Candesartan (30 mg/kg)) was found to be 2.016. Besides, the “Minimum effective dose (concentration) in vitro” value in series [1] (PANC-1, Hs766T and PaCa9 cells) is around 20 µM. Moreover, the “Change in cellular proliferation” value in series [1] (candesartan 10 μM) is “no statistical change in cellular proliferation”.
Turning to `CC(=O)S[C@@H]1CC2=CC(=O)CC[C@]2(C)[C@H]2CC[C@@]3(C)[C@@H](CC[C@@]34CCC(=O)O4)[C@H]12` [Spironolactone], in series [3] (Spironolactone (100 mg/kg)), the “Tumor weight, % of control” value is on record as 69% and the “Tumor weight, mean” value was 0.292 g.
On to `CCCCc1nc(Cl)c(CO)n1Cc1ccc(-c2ccccc2-c2nn[nH]n2)cc1` [Losartan], for which the “cell proliferation, WST1 absorbance” value in series [5] (Losartan 100 μM, Table 3, 1 h, Medium/DMSO 3.571) was found to be 3.392; in series [5] (Losartan 100 μM, Table 7A, 2×10^4 cells per well, control 3.535) it was 3.161; with PANC-1 cells (Losartan 100 μM, Table 1, 2 h, 10% FCS-DMEM, control 3.618) it was 2.507; with PANC-1 cells (Losartan 100 μM, Table 5A, 10% FCS-DMEM, 2×10^4 cells per well, Medium/DMSO 3.348), 3.699; in the series on HS766T cells (Losartan 100 μM, Table 2, 2 h, 10% FCS-DMEM, control 3.214) it was 2.992; with HS766T cells (Losartan 100 μM, Table 6A, 10% FCS-DMEM, 2×10^4 cells per well, control 3.339) it was 3.182. Moreover, the “BLI data, % of control” value in series [3] (Losartan (60 mg/kg)) is reported as 73%. Besides, in series [3] (Losartan (60 mg/kg)), the “Tumor weight, % of control” value is on record as 87%. Also, in series [3] (Losartan (60 mg/kg)), the “Tumor weight, mean” value was determined as 0.3691 g. Also, the “BLI data, mean” value in series [3] (Losartan (60 mg/kg)) is listed as 2.199. Further, in series [1] (losartan 100 μM), the “Change in cellular proliferation” value was “no statistical change in cellular proliferation”.
